Experimental data from US10647713B2 (Nimbus Lakshmi, Inc., priority 2016, dated 2020).

Target: human TYK2 (JH2domain-pseudokinase) (Homo sapiens (Human), UniProt P29597)
Experiment: TYK2 JH2 Domain Binding Assay (KINOMEscan, DiscoveRx)
Conditions: 11-point dilution, duplicate
Outline: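 TYK2 JH2 (G556–D888)–NFkB DBD fusion, DNA-tagged, from HEK293 extracts (<0.1 nM) competed against immobilised biotinylated ligand for 1 h at room temperature, 0.9% DMSO. Bead-retained kinase quantified by qPCR; Kd from 11-point 3-fold series (top 30,000 nM, duplicate), Hill fit with slope −1.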

human TYK2 (JH2domain-pseudokinase), sequence (P29597 556-888): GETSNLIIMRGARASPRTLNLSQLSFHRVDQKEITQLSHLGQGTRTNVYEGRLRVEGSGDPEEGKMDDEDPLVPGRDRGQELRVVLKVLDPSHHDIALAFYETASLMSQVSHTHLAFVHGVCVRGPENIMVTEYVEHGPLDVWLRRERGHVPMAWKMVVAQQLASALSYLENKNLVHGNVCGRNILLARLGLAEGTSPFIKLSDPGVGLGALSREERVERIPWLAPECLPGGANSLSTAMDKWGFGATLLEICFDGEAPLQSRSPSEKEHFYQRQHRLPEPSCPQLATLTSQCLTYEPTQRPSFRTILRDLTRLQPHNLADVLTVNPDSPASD

Kd [nM] | Structure (SMILES)
1 to 10 | COc1cc(-c2nc(C)nn2C)ccc1Nc1cc(NC(=O)C2CC2)nc2[nH]c(C(F)F)nc12 [I-161, N-(2-(difluoromethyl)-7-((4-(1,3-dimethyl-1H-1,2,4-triazol-5-yl)-2-methoxyphenyl)amino)-3H-imidazo[4,5-b]pyridin-5-yl)cyclopropanecarboxamide]
0.1 to 0.5 | Cc1nc(-c2ccc(Nc3cc(NC(=O)C4CC4)nc4[nH]c(C(F)F)nc34)c(N(C)S(C)(=O)=O)c2)n(C)n1 [I-164, N-(2-(difluoromethyl)-7-((4-(1,3-dimethyl-1H-1,2,4-triazol-5-yl)-2-(N-methylmethylsulfonamido)phenyl)amino)-3H-imidazo[4,5-b]pyridin-5-yl)cyclopropanecarboxamide]
0.1 to 0.5 | CN(c1cc(-c2ccn(C)n2)ccc1Nc1cc(NC(=O)C2CC2)nc2[nH]c(C(F)F)nc12)S(C)(=O)=O [I-171, N-(2-(difluoromethyl)-7-((4-(1-methyl-1H-pyrazol-3-yl)-2-(N-methylmethylsulfonamido)phenyl)amino)-3H-imidazo[4,5-b]pyridin-5-yl)cyclopropaneCarboxamide]
> 10 | COc1c(Nc2cc(NC(=O)C3CC3)nc3[nH]c(C(F)(F)F)nc23)cccc1-c1nnn(C)n1 [I-172, N-(7-((2-methoxy-3-(2-methyl-2H-tetrazol-5-yl)phenyl)amino)-2-(trifluoromethyl)-3H-imidazo[4,5-b]pyridin-5-yl)cyclopropanecarboxamide]
0.1 to 0.5 | Cc1nc2c(Nc3ccc(-c4ccn(C)n4)cc3N(C)S(C)(=O)=O)cc(NC(=O)C3CC3)nc2[nH]1 [I-174, N-(2-methyl-7-((4-(1-methyl-1H-pyrazol-3-yl)-2-(N-methyl-methysulfonamido)phenyl)amino)-3H-imidazo[4,5-b]pyridin-5-yl)cyclopropanecarboxamide]
0.5 to 1 | Cc1cn(C)c(-c2ccc(Nc3cc(NC(=O)C4CC4)nc4[nH]c(C)nc34)c(N(C)S(C)(=O)=O)c2)n1 [I-176, N-(7-((4-(1,4-dimethyl-1H-imidazol-2-yl)-2-(N-methylmethyl-sulfonamido)phenyl)amino)-2-methyl-3H-imidazo[4,5-b]pyridin-5-yl)cyclopropane-carboxamide]
0.1 to 0.5 | Cc1nc2c(Nc3ccccc3S(C)(=O)=O)cc(NC(=O)C3CC3)nc2[nH]1 [I-177, N-(2-methyl-7-((2-(methylsulfonyl)phenyl)amino)-3H-imidazo[4,5-b]pyridin-5-yl)cyclopropanecarboxamide]
0.1 to 0.5 | CCS(=O)(=O)N(C)c1ccccc1Nc1cc(Nc2cccc(C#N)n2)nc2[nH]c(C)nc12 [I-181, N-(2-((5-((6-cyanopyridin-2-yl)amino)-2-methyl-3H-imidazo[4,5-b]pyridin-7-yl)amino)phenyl)-N-methylethanesulfonamide]

Continued, molecule first:

Structure (SMILES) | Kd [nM]
COc1c(Nc2cc(NC(=O)C3CC3)nc3[nH]c(C)nc23)cccc1-n1ncnc1C [I-162, N-(7-((2-methoxy-3-(5-methyl-1H-1,2,4-triazol-1-yl)phenyl)amino)-2-methyl-3H-imidazo[4,5-b]pyridin-5-yl)cyclopropanecarboxamide] | > 10
COc1cc(-c2nc(C)nn2C)ccc1Nc1cc(NC(=O)C2CC2)nc2[nH]c(C)nc12 [I-163, N-(7-((4-(1,3-dimethyl-1H-1,2,4-triazol-5-yl)-2-methoxyphenyl)amino)-2-methyl-3H-imidazo[4,5-b]pyridin-5-yl)cyclopropanecarboxamide] | 0.5 to 1
Cc1nc(-c2ccc(Nc3cc(NC(=O)C4CC4)nc4[nH]c(C)nc34)c(N(C)S(C)(=O)=O)c2)n(C)n1 [I-165, N-(7-((4-(1,3-dimethyl-1H-1,2,4-triazol-5-yl)-2-(N-methylmethylsulfonamido)phenyl)amino)-2-methyl-3H-imidazo[4,5-b]pyridin-5-yl)cyclopropanecarboxamide] | > 10
Cc1nc(-c2ccc(Nc3cc(Nc4cnc(C)c(C)n4)nc4[nH]c(C(F)F)nc34)c(N(C)S(C)(=O)=O)c2)n(C)n1 [I-166, N-(2-((2-(difluoromethyl)-5-((5,6-dimethylpyrazin-2-yl)amino)-3H-imidazo[4,5-b]pyridin-7-yl)amino)-5-(1,3-dimethyl-1H-1,2,4-triazol-5-yl)phenyl)-N-methyl-methanesulfonamide] | 0.1 to 0.5
COc1c(Nc2cc(Nc3cc(F)c(N4CC(OC)C4)cn3)nc3[nH]c(C(F)F)nc23)cccc1-c1nc(C)nn1C [I-167, 2-(difluoromethyl)-N7-(3-(1,3-dimethyl-1H-1,2,4-triazol-5-yl)-2-methoxyphenyl)-N5-(4-fluoro-5-(3-methoxyazetidin-1-yl)pyridin-2-yl)-3H-imidazo[4,5-b]pyridine-5,7-diamine] | > 10
COc1c(Nc2cc(Nc3cc(F)c(N4CC(OC)C4)cn3)nc3[nH]c(C)nc23)cccc1-c1nc(C)nn1C [I-168, N7-(3-(1,3-dimethyl-1H-1,2,4-triazol-5-yl)-2-methoxyphenyl)-N5-(4-fluoro-5-(3-methoxyazetidin-1-yl)pyridin-2-yl)-2-methyl-3H-imidazo[4,5-b]pyridine-5,7-diamine] | > 10
Cc1cnc(-c2ccc(Nc3cc(NC(=O)C4CC4)nc4[nH]c(C(F)F)nc34)c(N(C)S(C)(=O)=O)c2)n1C [I-169, N-(2-(difluoromethyl)-7-((4-(1,5-dimethyl-1H-imidazol-2-yl)-2-(N-methylmethylsulfonamido)phenyl)amino)-3H-imidazo[4,5-b]pyridin-5-yl)cyclopropanecarboxamide] | 0.1 to 0.5
Cc1nc2c(Nc3ccc(-c4ncc(C)n4C)cc3N(C)S(C)(=O)=O)cc(NC(=O)C3CC3)nc2[nH]1 [I-170, N-(7-((4-(1,5-dimethyl-1H-imidazol-2-yl)-2-(N-methylmethyl-sulfonamido)phenyl)amino)-2-methyl-3H-imidazo[4,5-b]pyridin-5-yl)cyclopropanecarboxamide] | 0.1 to 0.5
Cc1nc(-c2ccc(Nc3cc(Nc4cnc(C)c(C)n4)nc4[nH]c(C)nc34)c(N(C)S(C)(=O)=O)c2)n(C)n1 [I-173, N-(5-(1,3-dimethyl-1H-1,2,4-triazol-5-yl)-2-((5-((5,6-dimethylpyrazin-2-yl)amino)-2-methyl-3H-imidazo[4,5-b]pyridin-7-yl)amino)phenyl)-N-methylmethanesulfonamide] | > 10
Cc1cn(C)c(-c2ccc(Nc3cc(NC(=O)C4CC4)nc4[nH]c(C(F)F)nc34)c(N(C)S(C)(=O)=O)c2)n1 [I-175, N-(2-(difluoromethyl)-7-((4-(1,4-dimethyl-1H-imidazol-2-yl)-2-(N-methylmethylsulfonamido)phenyl)amino)-3H-imidazo[4,5-b]pyridin-5-yl)cyclopropane-Carboxamide] | 0.5 to 1
CN(c1cc(C(F)F)ccc1Nc1cc(Nc2cccc(C#N)n2)nc2[nH]c(C(F)F)nc12)S(C)(=O)=O [I-178, N-(2-((5-((6-cyanopyridin-2-yl)amino)-2-(difluoromethyl)-3H-imidazo[4,5-b]pyridin-7-yl)amino)-5-(difluoromethyl)phenyl)-N-methylmethanesulfonamide] | 0.1 to 0.5
CN(c1ccccc1Nc1cc(Nc2cccc(C#N)n2)nc2[nH]c(C(F)F)nc12)S(=O)(=O)C1CC1 [I-179] | 0.1 to 0.5
Cc1nc2c(Nc3ccccc3N(C)S(=O)(=O)C3CC3)cc(Nc3cccc(C#N)n3)nc2[nH]1 [I-180, N-(2-((5-((6-cyanopyridin-2-yl)amino)-2-methyl-3H-imidazo[4,5-b]pyridin-7-yl)amino)phenyl)-N-methylcyclopropanesulfonamide] | 0.1 to 0.5
